Results reported in PubChem BioAssay AID1963833 (Molecular Pharmacology Branch, DTP, NCI, 2024).
pIC50: −log10 of the molar value.

System: 883617-216-R-J1-PDC complex spheroid viability
Assay: Anticancer human tumor 883617-216-R-J1-PDC patient-derived bladder carcinoma cell line growth inhibition [POLQ]
Settings: for pIC50: curve of first compound; for viability, T/C: stronger effect = lower value
Protocol: Multicellular complex tumor spheroid response to Polymerase (POL) inhibitors (novobiocin, ART-558, RP6685) in combination with a variety of drugs and investigational agents in selected tumor cell lines
The POL inhibitors (novobiocin, ART-558, and RP6685) were evaluated both individually and in combination with standard of care and investigational anticancer small molecules within a complex spheroid model of solid tumors. . Complex spheroids include a stromal component modeled by human endothelial cells (HUVEC) and fibroblasts modeled by human mesenchymal stem cells (MSCs). The concentration ranges selected for each drug and investigational agent were based upon clinically achievable concentrations if the clinical Cmax of the agent was known.
Compounds. The drugs and investigational agents: novobiocin (NSC847541), ART-558 (NSC835418), RP-6685 (NSC848927), peposertib (NSC802822), ceralasertib (NSC780249), elimusertib (NSC800525), camonsertib (NSC841442), AZD-1390 (NSC803789), olaparib (NSC753686), talazoparib (NSC767125), rucaparib (NSC756644), sotorasib (NSC818433), MRTX-1133 (NSC836407), SN-38 (NSC673596), topotecan (NSC609699), epotoside (NSC141540), doxorubicin (NSC123127), gemcitabine (NSC613327), 5-fluorouracil (NSC19893), paclitaxel (NSC125973), vemurafenib (NSC761431), MSA-2 (NSC828583), SN-011 (NSC837082), adavosertib (NSC754352), prexasertib (NSC758257), carboplatin (NSC241240) and oxaliplatin (NSC266046), were obtained from the National Cancer Institute (NCI) Developmental Therapeutics Program Chemical Repository (21). The FDA-approved anticancer drug set is available from the Developmental Therapeutics Program at https://dtp.cancer.gov/organization/dscb/obtaining/. […] The stock solutions were prepared in dimethyl sulfoxide (DMSO, Sigma-Aldrich, St. Louis, MO, cat. D2650), except for the platinum compounds which were prepared in saline (Quality Biological, Gaithersburg, MD, cat. 114-055-101), at 800-fold the tested concentration and stored at -70 degrees C prior to their use. All drugs and investigational agents were tested over a range starting from a high concentration at or near the clinical Cmax and decreasing in half-log increments. If the clinical Cmax for an agent had not been determined, the highest concentration tested was 10 microM, except for SN-38, which was tested at a high concentration of 1 microM.
Cell Culture. All cells were maintained in an incubator at 37 degrees C and 5% CO2 with 95% humidity. The PDC lines were cultured according to standard operating procedures established by the NCI PDMR (https://pdmr.cancer.gov). Table 3 of the manuscript, lists the cell lines along with the number of the three cell types plated to form the mct-spheroids and media for tumor cell growth. After thawing, all PDC lines, except 997537-175-T-J1-PDC and 415267-285-R-J2-PDC, were cultured in Matrigel-coated flasks prepared with a working solution of 1X Ham's F-12 nutrient mix, without supplementation (Thermo Fisher Scientific, cat. 11765054), 100 U/mL penicillin-streptomycin (Thermo Fisher Scientific, cat. 15140122), and 2.5% Matrigel (Corning Inc., Corning, NY, cat. 354248) for the first three passages. The two PDC lines 997537-175-T-J1-PDC and 415267-285-R-J2-PDC were cultured on uncoated flasks. The 857933-349-R-J2-PDC line was cultured in 6C/Colon 1B media containing advanced DMEM/F-12 (Thermo Fisher Scientific, cat. 12634028), 10 mM HEPES (Thermo Fisher Scientific, cat. 15630080), 1X GlutaMAX supplement (Thermo Fisher Scientific, cat. 35050061), 0.1 mg/mL primocin (InvivoGen, San Diego, CA, cat. ant-pm-2), 10% defined fetal bovine serum, heat inactivated (HyClone Laboratories Inc., Logan, UT, cat. SH30070.03HI), 50% L-WRN conditioned media (ATCC, cat. CRL-3276), 1.25 mM N-Acetyl-L-cysteine (Sigma-Aldrich, cat. A9165), 10 mM nicotinamide (Sigma-Aldrich, cat. N0636), 1X B-27 supplement (Thermo Fisher Scientific, cat. 17504044), 1X N-2 supplement (Thermo Fisher Scientific, cat. […]
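Note: spheroids exposed to compounds for seven days before readout.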
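Throughout, for viability, T/C: 100% = DMSO vehicle control viability.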

CC[C@@]1(O)C(=O)OCc2c1cc1n(c2=O)Cc2cc3c(CN(C)C)c(O)ccc3nc2-1 + COC1C(OC(N)=O)C(O)C(Oc2ccc3c(O)c(NC(=O)c4ccc(O)c(CC=C(C)C)c4)c(=O)oc3c2C)OC1(C)C
pIC50 (second compound 0.0316 µM): < 7.00 | pIC50 (second compound 0.1 µM): < 7.00 | pIC50 (second compound 0.316 µM): < 7.00 | pIC50 (second compound 1 µM): < 7.00 | pIC50 (second compound 3.16 µM): < 7.00 | pIC50 (second compound 10 µM): < 7.00 | viability, T/C (second compound 0.0316 µM, first compound 0.000316 µM): 110% | viability, T/C (second compound 0.0316 µM, first compound 0.001 µM): 98.5% | viability, T/C (second compound 0.0316 µM, first compound 0.00316 µM): 94.7% | viability, T/C (second compound 0.0316 µM, first compound 0.01 µM): 89.1% | viability, T/C (second compound 0.0316 µM, first compound 0.0316 µM): 67.4% | viability, T/C (second compound 0.0316 µM, first compound 0.1 µM): 65.2% | viability, T/C (second compound 0.1 µM, first compound 0.000316 µM): 108% | viability, T/C (second compound 0.1 µM, first compound 0.001 µM): 110% | viability, T/C (second compound 0.1 µM, first compound 0.00316 µM): 91.7% | viability, T/C (second compound 0.1 µM, first compound 0.01 µM): 85.8% | viability, T/C (second compound 0.1 µM, first compound 0.0316 µM): 55.2% | viability, T/C (second compound 0.1 µM, first compound 0.1 µM): 60.6% | viability, T/C (second compound 0.316 µM, first compound 0.000316 µM): 95.9% | viability, T/C (second compound 0.316 µM, first compound 0.001 µM): 101% | viability, T/C (second compound 0.316 µM, first compound 0.00316 µM): 87.1% | viability, T/C (second compound 0.316 µM, first compound 0.01 µM): 81.6% | viability, T/C (second compound 0.316 µM, first compound 0.0316 µM): 58% | viability, T/C (second compound 0.316 µM, first compound 0.1 µM): 65% | viability, T/C (second compound 1 µM, first compound 0.000316 µM): 94.9% | viability, T/C (second compound 1 µM, first compound 0.001 µM): 96.8% | viability, T/C (second compound 1 µM, first compound 0.00316 µM): 89.7% | viability, T/C (second compound 1 µM, first compound 0.01 µM): 82.3% | viability, T/C (second compound 1 µM, first compound 0.0316 µM): 57.3% | viability, T/C (second compound 1 µM, first compound 0.1 µM): 61.7% | viability, T/C (second compound 3.16 µM, first compound 0.000316 µM): 107% | viability, T/C (second compound 3.16 µM, first compound 0.001 µM): 89.6% | viability, T/C (second compound 3.16 µM, first compound 0.00316 µM): 93.4% | viability, T/C (second compound 3.16 µM, first compound 0.01 µM): 78% | viability, T/C (second compound 3.16 µM, first compound 0.0316 µM): 65.2% | viability, T/C (second compound 3.16 µM, first compound 0.1 µM): 57.1% | viability, T/C (second compound 10 µM, first compound 0.000316 µM): 104% | viability, T/C (second compound 10 µM, first compound 0.001 µM): 90.9% | viability, T/C (second compound 10 µM, first compound 0.00316 µM): 95.3% | viability, T/C (second compound 10 µM, first compound 0.01 µM): 88% | viability, T/C (second compound 10 µM, first compound 0.0316 µM): 65.6% | viability, T/C (second compound 10 µM, first compound 0.1 µM): 64.9%
